In test [1] the test system is cell lines with confirmed KRAS p.G12S mutations. The test can be described thus: Immunoblot in four cell lines with confirmed KRAS p.G12S mutations. Type of test: cell-based. The following applies: 10 μM, 2 h. How it is done: Cells were passed for at least two generations after cryorecovery before they were used for assays. All cell lines were tested mycoplasma negative using MycoAlert™ Mycoplasma Detection Kit (Lonza). When indicated, cells were treated with drugs at 40-60% confluency at a final DMSO concentration of 1%. At the end of treatment period, cells were placed on ice. Unless otherwise indicated, adherent cells were washed once with ice-cold PBS (1 mL), scraped with a spatula, and pelleted by centrifugation (500×g, 5 min). Suspension cells were pelleted by centrifugation (500×g, 5 min), washed with 1 mL ice-cold PBS, and pelleted again. Cells were lysed in RIPA buffer supplemented with protease and phosphatase inhibitors (cOmplete and phosSTOP, Roche) on ice for 10 min. For RBD pulldown experiments, cells were lysed in Co-IP Lysis Buffer in lieu of RIPA buffer. Lysates were clarified by high-speed centrifugation (19,000×g, 10 min). Concentrations of lysates were determined with protein BCA assay (Thermo Fisher) and adjusted to 2 mg/mL with additional RIPA buffer (or Co-IP Lysis Buffer). […]
Unless otherwise noted, SDS-PAGE was run with Novex 16% Bis-Tris gel (Invitrogen) in MES running buffer (Invitrogen) at 200 V for 60 min following the manufacturer's instructions. […] The membrane was washed three times with TBST (5 min each wash) and imaged on a Li-COR Odyssey fluorescence imager.
Background: In western blotting, separated proteins are transferred to a membrane and probed.

In test [2] the test system is parental Ba/F3 cells (with IL-3). Briefly: Cell viability assay (CellTiter-Glo), parental Ba/F3 cells. Type of test: cell-based, murine. To be noted: Mus musculus, BaF3; +10 ng/mL IL-3, 72 h; read-out: IC50, growth of parental Ba/F3 cells. On the procedure:
Cells were seeded into 96-well white flat bottom plates (1,000 cells/well) (Corning) and incubated overnight. […] Cell viability was assessed using a commercial CellTiter-Glo (CTG) luminescence-based assay (Promega). Briefly, the 96-well plates were equilibrated to room temperature before the addition of diluted CTG reagent […] (1:4 CTG reagent:PBS). Plates were placed on an orbital shaker for 30 min before recording luminescence using a Spark 20M (Tecan) plate reader.
(Cellular ATP, detected with luciferase, serves as a proxy for viable cell number.)

Molecules are shown by their SMILES.

Turning to `O=C1O[C@H]2CN(c3nc(OCC45CCCN4CCC5)nc4c(F)c(-c5cccc6cccc(Cl)c56)ncc34)CC[C@@H]12` [5′], the “phospho-ERK level and K-Ras gel mobility” value in test [1] was “reduction of phospho-ERK level and gel mobility shift of the K-Ras protein”. In addition, the IC50 in test [2] was determined as 12.5 µM.

Values taken from patent US20250059187A1, “COVALENTLY BINDING INHIBITORS OF G12S, G12D AND/OR G12E MUTANTS OF K-RAS GTPASE” (The Regents of the University of California, priority 2021, published 2025).
